From patent US12509407B2, “Biostimulant agent for treating plants and/or plant seed” (UNIFERX INTERNATIONAL GMBH, priority 2019, dated 2025)

Key:
Type in all cases: in vivo
corn hybrid DKC 3511 = experiment: Comparative test 1: field trial, growth of leaf area of corn under heat stress; details: corn DKC 3511, heat stress >30° C., 10 days after single spray treatment, 1.15 liters protein hydrolysate and/or 0.68 kilograms glycine betaine per hectare
Experimental: In a first field trial, the effect of the biostimulant agent according to the invention on the Growth of the leaf area of the corn hybrid DKC 3511 under heat stress was investigated. For comparison, the corresponding effect of the individual components protein hydrolysate and betaine was tested in parallel, each in the same amounts as contained in the biostimulant agent.
The field trial was conducted in June 2019 on soils with brittle black earth. The humus content was 3.2-3.4% and the depth of the humus layer was 60-70 cm. Soil pH was 6.2-6.6, alkaline hydrolyzed nitrogen content was […] per kilogram, available phosphorus compounds content was […] per kilogram, and available potassium content was 120-130 grams per kilogram. […]
(§1) All three groups of plants were treated once with the corresponding solution at the same times and with the same quantities. […]
(§2) To determine the biological effect of the different treatments, the leaf area of the plants (sum of leaf area from the third to the sixth leaf from the top in square meters per hectare of field area) was determined in each case before the start of the treatments and 10 days after the treatment. Thereby, the biological effect corresponds to the determined increase of the leaf area at the end of the study period in percent.

[1] = system: sunflower hybrid SI Diamantis; experiment: Comparative test 2: field trial, growth of leaf area of sunflowers under heat stress; details: heat stress >30° C., 10 days after treatment
Experimental: (§3) The field trial was conducted in June 2019 on soils with brittle black earth. The humus content was 3.2-3.4% and the depth of the humus layer was 60-70 cm. Soil pH was 6.2-6.6, alkaline hydrolyzed nitrogen content was […] per kilogram, available phosphorus compounds content was […] per kilogram, and available potassium content was […] per kilogram. The average annual precipitation was 633 millimeters, whereas the precipitation in June was 87 millimeters. The average annual temperature was 7.4° C., the average temperature in June was 17.6° C., the average relative humidity was 76%, and the average relative humidity in June was 66%.
(§4) During the duration of the field trial, the treated plants were exposed to heat stress with daily temperatures exceeding 30° C. […]
as §1
as §2, with “percent. […]” for “percent.”

soybean var. Niagara = experiment: Comparative test 3: field trial, increase in leaf area of soybean under heat stress; details: 10 days after treatment, third to sixth leaf from the top
Experimental: as §3, §4, §1
as §2, with “percent. […]” for “percent.”

## C[N+](C)(C)CC(=O)O [betaine, glycine betaine]
Corn hybrid DKC 3511
  increase in leaf area (biological effect): 0.2%
[1]
  increase in leaf area (biological effect): no increase in leaf area was observed at all
Soybean var. Niagara
  increase in leaf area (biological effect): no increase in leaf area was observed at all
